Measured values reported in publication PMC7483518, “Destabilizing single chain major histocompatibility complex class I protein for repurposed enterokinase proteolysis” (Scientific Reports, 2020).
Several values for one entry are separate records, joined by “and”; a condition that tells them apart may be missing. Equal entries are not always repeated. Where two headings read alike, the source gives them in different places.

Assays:
[1] = target: photolabile unchained HLA-A*11:01 pMHC-I protein (Homo sapiens, UniProt P04439, A114D/D185E/E176A/F33Y/L180Q/S129P/T187R); test: ELISA with photolabile unchained pMHC-I protein and UV irradiation; format: binding
[2] = tested on: HLA-A*11:01 single chain protein; format: biochemical, Human; design: EZ50kDa / EZ50kD (pH 6.2) / EZ50kD (pH 8) / EZ50kD (normalised: EBV1101 = 1, EBV0201 = 0) / EZ50kDa rank: unit not given beside the values; settings: for vol: mean Adj. Volume of the 2 replicates; for Batch Mean: mean of the 2 replicates of EZ50kD; for EZ50kDa: Table 3, EGFR peptide library (n = 177, duplicated), 14 h;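 on EZ50kD (pH 6.2): scaled with positive control peptide as 1 and negative control peptide as 0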;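 on EZ50kDa: intact 50 kDa band volume scaled with positive control peptide as 1 and negative as 0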
[3] = target: T1, photo-labile unchained HLA-A*11:01 MHC-I protein (Homo sapiens, UniProt P04439, A114D/D185E/E176A/F33Y/L180Q/S129P/T187R); test: Photo-labile unchained MHC-I protein treated with UV, peptides and enterokinase (SDS-PAGE band volume); format: biochemical; settings: for vol: mean Adj. Volume of the 2 replicates; for Batch Mean: mean of the 2 replicates of EZ50kD
T1 construct: made in house

[4] = pH 6.2, 37 °C, enterokinase, Eq. (4)
[5] = EGFR mutation peptide library and control peptides, HLA-A*11:01, mean, STDEV
[6] = EASY MHC-I A*11:01, 2019-08-01, mean of the 2 replicates
[7] = EASY MHC-I A*11:01, gel 2019-07-24 lr1046_ex1004 5min, replicate 1 (lanes 1-14)
[8] = EASY MHC-I A*11:01, gel 2019-07-24 lr1046_ex1004 5min, replicate 2 (lanes 15-28)
[9] = EASY MHC-I A*11:01, 2019-07-25, mean of the 2 replicates
[10] = EASY MHC-I A*11:01, 2019-07-26, mean of the 2 replicates
[11] = EASY MHC-I A*11:01, run 2019-08-06, 5min, mean of 2 replicates
[12] = EASY MHC-I A*11:01, run 2019-08-07, 5min, mean of 2 replicates
[13] = EASY MHC-I A*11:01, run 2019-08-08, 5min, mean of 2 replicates

## FGSLLDYVREHK [CS1048]
[1]
  EASY_mean: 0.1889
[2]
  vol: 7729416
  Batch Mean: 0.09362
[3]
  vol: 12972708
  Batch Mean: 0.7597

## GSLLDYVREHK [CS1037]
[1]
  EASY_mean: 0.5397
[2]
  EZ_mean: 0.3673
  vol: 11854307
  Batch Mean: 0.2216
[2]; [4]
  EZ50kDa: 0.367 ± 0.022
[3]
  vol: 9517473
  Batch Mean: -1.196

## MQLMPFGCLLDY [TM1050]
[1]
  EASY_mean: 0.2124
[2]
  EZ_mean: 0.09599
  vol: 8153341
  Batch Mean: 0.1072
[2]; [4]
  EZ50kDa: 0.0956 ± 0.004
[3]
  vol: 5027054
  Batch Mean: -0.2574

## QLMPFGSLLDY [CS1032]
[1]; [5]
  EASY_mean: 0.7325
[2]
  EZ_mean: 0.8691
  Norm_mean: 1.167
  vol: 30217126
  Batch Mean: 0.787
[2]; [4]
  EZ50kDa: 0.869 ± 0.174
[3]
  vol: 11215354
  Batch Mean: -0.05053

## SLLDYVREH [CS1017]
[1]
  EASY_mean: 0.4725
[2]; [6]
  EZ_mean: 0.7333
[2]; Fig. 2f,g, EGFR peptide library
  EZ MHC-I stability with HLA-A*11:01 single chain protein: strongly stabilizing
[2]; [4]
  EZ50kDa: 0.733 ± 0.140
[2]
  vol: 26057980
  Batch Mean: 0.6595
[3]
  vol: 10431446
  Batch Mean: -0.3978

## SLLDYVREHK [CS1027]
[1]; [5]
  EASY_mean: 0.7046
[2]
  EZ_mean: 0.9134
  Norm_mean: 1.317
  vol: 29201845
  Batch Mean: 0.7556
[2]; [4]
  EZ50kDa: 0.811 ± 0.171
[3]
  vol: 11075589
  Batch Mean: -1.466

## SLLDYVREHKDN [CS1050]
[1]
  EASY_mean: 0.2031
[2]; [4]
  EZ50kDa: 0.0255 ± 0.005
[2]
  vol: 7574013
  Batch Mean: 0.08881
[3]
  vol: 12012525
  Batch Mean: -2.24

## TDFGRAKLLGAE [LR1046]
[1]
  EASY_mean: -0.01889
[2]; EASY MHC-I A*11:01, gel 2019-07-24 lr1046_ex1004 5min, mean of 2 replicates
  EZ_mean: -0.05291
[2]; [7]
  EZ50kD (normalised: EBV1101 = 1, EBV0201 = 0): -0.04519
  Norm (50 kDa band adj. volume normalised: Undig_37C = 1, Dig_37C = 0): -0.03888
[2]; [8]
  EZ50kD (normalised: EBV1101 = 1, EBV0201 = 0): -0.06064
  Norm (50 kDa band adj. volume normalised: Undig_37C = 1, Dig_37C = 0): 0.001098

## TQLMPFGS [CS1001]
[1]
  EASY_mean: 0.00928
[2]
  EZ_mean: -0.06222

## TQLMPFGSL [CS1010]
[1]
  EASY_mean: -0.009401
[2]
  EZ_mean: -0.05322

## TQLMPFGSLLD [CS1031]
[1]
  EASY_mean: -0.03382
[2]
  EZ_mean: -0.07663

## TQLMPFGSLLDY [CS1043]
[1]
  EASY_mean: 0.01363
[2]
  EZ_mean: -0.01577

## TSPKANKE [EX1004]
[1]
  EASY_mean: -0.008845
[2]
  EZ_mean: -0.03458

## TSPKANKEI [EX1009]
[1]; […], mean, STDEV
  EASY_mean: -0.005092
[2]; [9]
  EZ_mean: -0.03775

## TSPKANKEIL [EX1015]
[1]; […], mean, STDEV
  EASY_mean: -0.004833
[2]; [10]
  EZ_mean: -0.1061

## TSPKANKEILD [EX1022]
[1]; ELISA signal, mean, […]
  EASY_mean: -0.01584
[2]; [10]
  EZ_mean: -0.1213

## TSPKANKEILDE [EX1030]
[1]
  EASY_mean: -0.0262
[2]; [6]
  EZ_mean: -0.138

## TSTVQLIM [TM1001]
[1]; […], mean, STDEV
  EASY_mean: -0.02312
[2]; [11]
  EZ_mean: -0.08359

## TSTVQLIMQ [TM1010]
[1]; […], mean, STDEV
  EASY_mean: -0.01875
[2]; [12]
  EZ_mean: -0.07795

## TSTVQLIMQL [TM1020]
[1]; […], mean, STDEV
  EASY_mean: -0.02933
[2]; [13]
  EZ_mean: -0.0424
  Norm_mean: -0.03086

## TSTVQLIMQLM [TM1031]
[1]; […], mean, STDEV
  EASY_mean: -0.04936
[2]
  EZ_mean: -0.09739

## TSTVQLIMQLMP [TM1042]
[1]; ELISA signal, mean, […]
  EASY_mean: -0.04181
[2]
  EZ_mean: -0.1051

## TVMDIISRR [reference compound]
[1]; Table 2, 62.5 nM photolabile pMHC-I mixture, 5 μM peptide in PBS, UV 365 nm 2 × 5 min on ice, 2 h room temperature on anti-β2m plate, Abs450nm − Abs570nm, instability cutoff < 0.6
  ELISA450nm: 1.944
[2]; Table 2, pH 6.2, 37 °C, enterokinase, Eq. (4), instability cutoff < 0.3
  EZ50kD (pH 6.2): 1.086

## TVQLIMQL [TM1003]
[1]; […], mean, STDEV
  EASY_mean: -0.03257
[2]; [11]
  EZ_mean: -0.09825

## TVQLIMQLM [TM1012]
[1]; […], mean, STDEV
  EASY_mean: -0.03295
[2]; [12]
  EZ_mean: -0.1032

## TVQLIMQLMP [TM1022]
[1]; ELISA signal, mean, […]
  EASY_mean: -0.01505
[2]; [13]
  EZ_mean: -0.0531
  Norm_mean: -0.04425

## TVQLIMQLMPF [TM1033]
[1]; […], mean, STDEV
  EASY_mean: -0.06339
[2]
  EZ_mean: -0.1125

## TVQLIMQLMPFG [TM1044]
[1]; ELISA signal, mean, […]
  EASY_mean: -0.03569
[2]
  EZ_mean: -0.09806

## VAIKTSPKA [EX1005]
[1]; […], mean, STDEV
  EASY_mean: 0.004482
[2]; [9]
  EZ_mean: -0.02025

## VAIKTSPKAN [EX1011]
[1]; ELISA signal, mean, […]
  EASY_mean: -0.005285
[2]; [9]
  EZ_mean: -0.03763

## VAIKTSPKANK [EX1018, EGFR exon 19 deletion-derived peptide]
[1]; […], mean, STDEV
  EASY_mean: 0.2323
[2]; [10]
  EZ_mean: 0.2216
[2]; [4]
  EZ50kDa: 0.2 and 0.222 ± 0.010
[2]
  vol: 9218005
  Batch Mean: 0.1404
[3]
  vol: 8041509
  Batch Mean: 0.2261

## VAIKTSPKANKE [EX1026]
[1]
  EASY_mean: -0.02113
[2]; [6]
  EZ_mean: -0.1295

## VQLIMQLM [TM1004]
[1]; […], mean, STDEV
  EASY_mean: -0.05004
[2]; [11]
  EZ_mean: -0.1305

## VQLIMQLMP [TM1013]
[1]; […], mean, STDEV
  EASY_mean: -0.03636
[2]; [12]
  EZ_mean: -0.1096

## VQLIMQLMPF [TM1023]
[1]; […], mean, STDEV
  EASY_mean: -0.02163
[2]; [13]
  EZ_mean: -0.03531
  Norm_mean: -0.02177

## VQLIMQLMPFG [TM1034]
[1]; ELISA signal, mean, […]
  EASY_mean: -0.07888
[2]
  EZ_mean: -0.1329

## VQLIMQLMPFGC [TM1045]
[1]; ELISA signal, mean, […]
  EASY_mean: -0.05081
[2]
  EZ_mean: -0.1164

## VQLITQLMPFGS [CS1039]
[1]
  EASY_mean: -0.02003
[2]
  EZ_mean: -0.04039
